Assay results: patent US11026958B2, “Substituted 6-membered aryl or heteroaryl allosteric modulators of nicotinic acetylcholine receptors” (Merck Sharp & Dohme Corp., priority 2016, dated 2021)
Like-named read-outs stand apart in the source and are kept apart here.

Target: human α7 nAChR (Homo sapiens (Human), UniProt P36544)
Assay: Automated patch-clamp electrophysiology functional assay (Assay A), IonFlux HT
Assay type: cell-based
Conditions: HEK cell line stably expressing human RIC-3 and human α7, whole-cell population patch, 40 μM acetylcholine
Method: The α7 nAChR positive allosteric modulator (PAM) activity of the present compounds may be tested using assays known in the art. The α7 nAChR PAMs described herein have activities in an automated patch-clamp electrophysiology functional assay as described in the examples. The assay was performed using the IonFlux HT in a whole-cell, population patch configuration. See Golden et al. Assay Drug Dev. Technol. (2011) 9:608-619. The compounds were assessed for their ability to modulate the function of the human α7 nAChR stably expressed in a HEK cell line both in the presence, and in the absence of the natural α7 agonist acetylcholine. By performing a series of such measurements at different concentrations, the effective concentration of the α7 nAChR PAMs (EC50) was determined. See Spencer et al. Assay Drug Dev. Technol. (2012) 10:313-324.
Automated patch-clamp electrophysiology was performed using the IonFlux HT (Fluxion Biosciences Inc., San Francisco, Calif.) in the whole-cell, population patch configuration. Test compounds were assessed for their ability to modulate the function of the α7 nicotinic acetylcholine receptor both in the presence, and in the absence of the natural α7 agonist acetylcholine. A HEK cell line stably expressing both human RIC-3 and human α7 (PrecisION hnAChR α7/RIC-3, Eurofins Pharma, St. Charles, Mo.) was cultured in 175 cm^2 triple-layer tissue culture flasks to no more than 90% confluency in DMEM/F-12 growth media supplemented with 10% heat-inactivated fetal bovine serum, 1% non-essential amino acids, 0.625 μg/mL Puromycin, and 400 μg/mL Geneticin. Immediately prior to assay, cells were detached by first aspirating growth media, rinsing with Dulbecco's phosphate buffered saline, and then adding 10 mL of Accutase (Innovative Cell Technologies, San Diego, Calif.) to the flask and then incubating at 37° C. for 5 minutes. Detached cells were then recovered by the addition of 40 mL of CHO-serum-free media supplemented with 25 mM HEPES, and rocked gently in a 50 mL conical tube for 20 minutes prior to patch-clamp assay. After recovery, cells were pelleted by centrifugation at 1,000 RPM for 1 minute in a compact bench top centrifuge; recovery media was aspirated and cells were resuspended in external recording solution (150 mM NaCl, 5 mM KCl, 2 mM CaCl2, 1 mM MgCl2, 10 mM HEPES, 12 mM dextrose) to a density of 5.0×10^6 cells/mL. The cell suspension was added to the cell inlet wells on an IonFlux HT population patch plate which had previously been rinsed and primed with deionized H2O. Test compounds were serially diluted in DMSO and then resuspended to the final test concentration in external recording solution, with, or without 40 μM acetylcholine added to the external recording solution; test compounds were then transferred to the IonFlux HT population patch plate. Internal recording solution (110 mM TrisPO4, 28 mM TrisBase, 0.1 mM CaCl2, 2 mM MgCl2, 11 mM EGTA, 4 mM MgATP) was added to the internal recording solution inlet wells on the IonFlux HT patch plate previously loaded with cells and test compounds, and the plate loaded into the IonFlux HT instrument. A protocol was executed on the IonFlux HT to trap the cells, break into the cells, and establish the whole-cell recording configuration; cells were voltage-clamped at a holding potential of −60 mV for the duration of the experiment, all experiments were conducted at room temperature, and the IonFlux HT injection pressure was 8 psi for solution applications. Upon establishing the whole-cell configuration, external recording solution was perfused into the recording chambers for 120 seconds and then 40 μM acetylcholine was applied for 1 second and immediately washed off with external recording solution for 60 seconds. The 40 μM acetylcholine-evoked α7 current served as the current response to which subsequent test compound effects, in the presence, or in the absence of 40 μM acetylcholine would be quantified relative to. […]

Sequence of human α7 nAChR (P36544 23-502): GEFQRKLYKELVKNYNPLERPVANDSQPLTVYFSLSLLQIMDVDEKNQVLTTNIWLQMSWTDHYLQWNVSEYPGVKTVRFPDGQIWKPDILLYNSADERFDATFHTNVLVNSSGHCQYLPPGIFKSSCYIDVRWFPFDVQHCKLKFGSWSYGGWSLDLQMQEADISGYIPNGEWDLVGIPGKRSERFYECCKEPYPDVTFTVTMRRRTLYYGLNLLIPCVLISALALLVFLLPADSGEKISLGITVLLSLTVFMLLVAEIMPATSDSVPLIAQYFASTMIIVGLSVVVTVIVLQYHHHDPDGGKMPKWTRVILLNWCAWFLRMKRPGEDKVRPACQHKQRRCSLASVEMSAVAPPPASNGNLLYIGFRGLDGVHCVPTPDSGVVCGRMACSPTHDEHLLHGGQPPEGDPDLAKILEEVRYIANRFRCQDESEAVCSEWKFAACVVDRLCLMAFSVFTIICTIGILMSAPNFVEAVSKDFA

Molecule | EC50 (read-out: α7 nAChR EC50) [nM] | EC50 (read-out: α7 nAChR Potency) [nM]
CC(C)c1ccnc(C2CC2c2ccc(S(N)(=O)=O)cc2)n1 (racemic) [Example C3, 4-{trans-2-[4-(Propan-2-yl)pyrimidin-2-yl]cyclopropyl}benzenesulfonamide] | 1800 | 500 to 5000
NS(=O)(=O)c1ccc(C2CC2c2nccc(-c3cccc(F)c3)n2)cc1 (single isomer, unassigned) [Example 10, 4-{trans-2-[4-(3-Fluorophenyl)pyrimidin-2-yl]cyclopropyl}benzenesulfonamide] | 210 | 100 to 500
NS(=O)(=O)c1ccc(C2CC2c2nccc(-c3cncc(C(F)(F)F)c3)n2)cc1 (single isomer, unassigned) [Example 11, 4-(trans-2-{4-[5-(Trifluoromethyl)pyridin-3-yl]pyrimidin-2-yl}cyclopropyl)benzenesulfonamide] | 240 | 100 to 500
CC(C)c1ccc(C2CC2c2ccc(S(N)(=O)=O)cc2)nc1 (single isomer, unassigned) [Example A3, 4-{trans-2-[5-(Propan-2-yl)pyridin-2-yl]cyclopropyl}benzenesulfonamide] | 550 | 500 to 5000
CC(C)c1cccnc1C1CC1c1ccc(S(N)(=O)=O)cc1 (racemic) [Example A7, 4-{trans-2-[3-(Propan-2-yl)pyridin-2-yl]cyclopropyl}benzenesulfonamide] | 2400 | 500 to 5000
CC(C)c1cccc(C2CC2c2ccc(S(N)(=O)=O)cc2)n1 (racemic) [Example A10, 4-{trans-2-[6-(Propan-2-yl)pyridin-2-yl]cyclopropyl}benzenesulfonamide] | – | 500 to 5000
4-{trans-2-[2-(Cyclopentylamino)pyrimidin-4-yl]cyclopropyl}benzenesulfonamide [Example D2] | 2200 | 500 to 5000
CC(C)c1ccnc(C2CC2c2ccc(S(N)(=O)=O)cc2)c1 (single isomer, unassigned) [Example A2, 4-{trans-2-[4-(Propan-2-yl)pyridin-2-yl]cyclopropyl}benzenesulfonamide] | 410 | 100 to 500
CC(C)c1ccnc(C2CC2c2ccc(S(N)(=O)=O)cc2)c1 (racemic) [Example A11, 4-{trans-2-[4-(Propan-2-yl)pyridin-2-yl]cyclopropyl}benzenesulfonamide] | 460 | 100 to 500
CC(C)c1ccnc(C2CC2c2ccc(S(N)(=O)=O)cc2)n1 (single isomer, unassigned) [Example 5, 4-{trans-2-[4-(Propan-2-yl)pyrimidin-2-yl]cyclopropyl}benzenesulfonamide] | 410 | 100 to 500
NS(=O)(=O)c1ccc([C@@H]2C[C@H]2c2nccc(-c3cccc(F)c3)n2)cc1 (single isomer, unassigned) [Example C4, 4-{trans-2-[4-(3-fluorophenyl)pyrimidin-2-yl]cyclopropyl}benzenesulfonamide] | 1900 | 500 to 5000
NS(=O)(=O)c1ccc([C@@H]2C[C@H]2c2cccc(C3CCCC3)n2)cc1 (racemic) [Example A12, 4-[trans-2-(6-Cyclopentylpyridin-2-yl)cyclopropyl]benzenesulfonamide] | – | 100 to 500
4-(trans-2-{2-[Methyl(phenyl)amino]pyrimidin-4-yl}cyclopropyl)benzenesulfonamide [Example D6] | – | 500 to 5000
CC(C)c1cnc(C2CC2c2ccc(S(N)(=O)=O)cc2)nc1 (single isomer, unassigned) [Example C1, 4-{trans-2-[5-(Propan-2-yl)pyrimidin-2-yl]cyclopropyl}benzenesulfonamide] | 280 | 100 to 500
NS(=O)(=O)c1ccc([C@@H]2C[C@H]2c2nccc(-c3cncc(C(F)(F)F)c3)n2)cc1 (single isomer, unassigned) [Example C5, 4-(trans-2-{4-[5-(trifluoromethyl)pyridin-3-yl]pyrimidin-2-yl}cyclopropyl)benzenesulfonamide] | 3300 | 500 to 5000
NS(=O)(=O)c1ccc([C@@H]2C[C@H]2c2ccnc(N3CCOCC3)n2)cc1 (relative stereo) [Example 2, 4-{trans-2-[2-(Morpholin-4-yl)pyrimidin-4-yl]cyclopropyl}benzenesulfonamide] | – | 500 to 5000
NS(=O)(=O)c1ccc([C@@H]2C[C@H]2c2cccc(C3CCOCC3)n2)cc1 (racemic) [Example A9, 4-{trans-2-[6-(Tetrahydro-2H-pyran-4-yl)pyridin-2-yl]cyclopropyl}benzenesulfonamide] | 5600 | 5000 to 50000
NS(=O)(=O)c1ccc([C@@H]2C[C@H]2c2cccc(C3CCCC3)n2)cc1 (single isomer, unassigned) [Example A4, 4-[trans-2-(6-Cyclopentylpyridin-2-yl)cyclopropyl]benzenesulfonamide] | – | 500 to 5000
NS(=O)(=O)c1ccc([C@@H]2C[C@H]2c2ccc(N3CCCC3)nc2)cc1 (relative stereo) [Example 6, 4-{trans-2-[6-(Pyrrolidin-1-yl)pyridin-3-yl]cyclopropyl}benzenesulfonamide] | 720 | 500 to 5000
CC(C)c1cnc(C2CC2c2ccc(S(N)(=O)=O)cc2)nc1 (racemic) [Example C2, 4-{trans-2-[5-(Propan-2-yl)pyrimidin-2-yl]cyclopropyl}benzenesulfonamide] | – | 500 to 5000

Further lines, results first:

EC50 (read-out: α7 nAChR EC50) [nM] | EC50 (read-out: α7 nAChR Potency) [nM] | Molecule
5200 | 5000 to 50000 | NS(=O)(=O)c1ccc(C2CC2c2cccc(-n3cncn3)c2)cc1 (racemic) [Example F2, 4-{trans-2-[3-(1H-1,2,4-Triazol-1-yl)phenyl]cyclopropyl}benzenesulfonamide]
1000 | 500 to 5000 | CC(C)Oc1ccc(C2CC2c2ccc(S(N)(=O)=O)cc2)cn1 (racemic) [Example G4, 4-{trans-2-[6-(Propan-2-yloxy)pyridin-3-yl]cyclopropyl}benzenesulfonamide]
500 | 100 to 500 | NS(=O)(=O)c1ccc([C@@H]2C[C@H]2c2ccnc(C3CCC3)c2)cc1 (racemic) [Example E3, 4-[trans-2-(2-Cyclobutylpyridin-4-yl)cyclopropyl]benzenesulfonamide]
1100 | 500 to 5000 | NS(=O)(=O)c1ccc(C2CC2c2ccnc(NCCc3ccccc3)n2)cc1 (racemic) [Example D10, 4-(trans-2-{2-[(2-Phenylethyl)amino]pyrimidin-4-yl}cyclopropyl)benzenesulfonamide]
3700 | 500 to 5000 | NS(=O)(=O)c1ccc([C@@H]2C[C@H]2c2ccc(-n3ccnc3)cc2)cc1 (racemic) [Example F1, 4-{trans-2-[4-(1H-Imidazol-1-yl)phenyl]cyclopropyl}benzenesulfonamide]
3300 | 500 to 5000 | NS(=O)(=O)c1ccc(C2CC2c2ccnc(Nc3ccccc3)n2)cc1 (racemic) [Example D11, 4-{trans-2-[2-(Phenylamino)pyrimidin-4-yl]cyclopropyl}benzenesulfonamide]
– | 500 to 5000 | NS(=O)(=O)c1ccc(C2CC2c2ccnc(-c3ccccc3)n2)cc1 (racemic) [Example D9, 4-[trans-2-(2-Phenylpyrimidin-4-yl)cyclopropyl]benzenesulfonamide]
– | 500 to 5000 | CC(C)c1cc(C2CC2c2ccc(S(N)(=O)=O)cc2)ccn1 (racemic) [Example E1, 4-{trans-2-[2-(Propan-2-yl)pyridin-4-yl]cyclopropyl}benzenesulfonamide]
